Earlier results in patent publication US11844805B2, “Formulations of testosterone and methods of treatment therewith” (BOARD OF REGENTS, THE UNIVERSITY OF TEXAS SYSTEM, priority 2014, dated 2023).

Assays:
[1] = women, single dose, sublingual
[2] = intranasal administration; baseline mean 2.5 pmol/L

SMILES: C[C@]12CC[C@H]3[C@@H](CCC4=CC(=O)CC[C@@]43C)[C@@H]1CC[C@@H]2O [testosterone]
- effect on subjective sexual desire, genital responsiveness and genital arousal [1]: increase subjective sexual desire, genital responsiveness, and genital arousal
- maximum testosterone concentration (mean) [2]: 168.2 pmol/L
